Values of other authors, collected in paper PMC9694544, “Conteltinib (CT-707) in patients with advanced ALK-positive non-small cell lung cancer: a multicenter, open-label, first-in-human phase 1 study” (BMC Medicine, 2022).
Like-named read-outs stand apart in the source and are kept apart here.

Assays:
ALK-positive NSCLC = details: cited from earlier work
[1] = tested on: patients with ALK-positive NSCLC; details: cited from earlier work
[2] = ALK TKI-naïve patients, at RP2D
[3] = patients who received crizotinib previously, at RP2D
[4] = patients who received crizotinib previously, at MTD
[5] = ALK TKI-naïve patients, at the dose around RP2D
[6] = patients who received crizotinib previously, at the dose around RP2D
[7] = patients who received crizotinib previously, at the dose-expansion phase

In the case of `COc1cc(N2CCC(N3CCN(C)CC3)CC2)ccc1Nc1ncc(Cl)c(Nc2ccccc2P(C)(C)=O)n1` [brigatinib], the ORR (ALK-positive NSCLC; [2]) is listed as 100%, the “median PFS” value (ALK-positive NSCLC; [2]) is listed as 30.8 months and the ORR (ALK-positive NSCLC; [3]) is listed as 72%. For the same molecule, the “median PFS” value (ALK-positive NSCLC; [3]) was 12.9 months and the “incidence of grade ≥ 3 TRAEs” value [1] was 36%.

For `Cc1cc(Nc2ncc(Cl)c(Nc3ccccc3S(=O)(=O)C(C)C)n2)c(OC(C)C)cc1C1CCNCC1` [ceritinib], the ORR (ALK-positive NSCLC; ALK TKI-naïve patients, at MTD) is given as 59%, the “median PFS” value (ALK-positive NSCLC; ALK TKI-naïve patients, at MTD) is given as 18.4 months and the ORR (ALK-positive NSCLC; [4]) is given as 56%. The “median PFS” value (ALK-positive NSCLC; [4]) was 6.9 months, the “incidence of grade ≥ 3 TRAEs” value [1] was 49% and the rash [1] was 13%.

For `C[C@@H]1CN(C(=O)c2ccc(NC(=O)c3cc(O[C@H](C)c4c(Cl)ccc(F)c4Cl)c(N)nn3)cc2)C[C@H](C)N1` [ensartinib], the ORR (ALK-positive NSCLC; [5]) is listed as 80.0%, the “median PFS” value (ALK-positive NSCLC; [5]) is listed as 26.2 months and the ORR (ALK-positive NSCLC; [6]) is listed as 69.0%. The “median PFS” value (ALK-positive NSCLC; [6]) was 9.0 months, the “incidence of grade ≥ 3 TRAEs” value [1] was 23% and the rash [1] was 56%. The rash ([1]; grade ≥ 3) was 12%.

For `COc1cc(N2CCC3(CCN(C)CC3)CC2)ccc1Nc1ncc(Cl)c(Nc2ccccc2P(C)(C)=O)n1` [iruplinalkib], the ORR (ALK-positive NSCLC; ALK TKI-naïve patients, at the dose-expansion phase) is given as 76.3%, the ORR (ALK-positive NSCLC; [7]) is given as 45.7% and the “median PFS” value (ALK-positive NSCLC; [7]) is given as 6.9 months. The “incidence of grade ≥ 3 TRAEs” value [1] was 35% and the rash [1] was 13%.
